Source: patent US20140142052A1, “PHOSPHORYLATED POLYOLS, PYROPHOSPHATES, AND DERIVATIVES THEREOF HAVING BIOLOGICAL ACTIVITY” (NormOxys, Inc., priority 2012, published 2014)

What was measured:
[1] = target: T1, hemoglobin in human whole blood (WB) (Homo sapiens, UniProt P68871+P69905); assay: Oxygen equilibrium curve (Hemox Analyzer), P50 in human whole blood; assay type: cell-based; conditions: blood matrix WB; for P50 (Torr): incubated 1-2 h at 37° C., n=3; for P50 increase (%): versus P50 control
T1 construct: Human whole blood was freshly withdrawn from healthy donors in heparinized microtubes; from tissue; host or cells: fresh human whole blood from healthy donors
T1 sequence (P69905 2-142 limits assumed): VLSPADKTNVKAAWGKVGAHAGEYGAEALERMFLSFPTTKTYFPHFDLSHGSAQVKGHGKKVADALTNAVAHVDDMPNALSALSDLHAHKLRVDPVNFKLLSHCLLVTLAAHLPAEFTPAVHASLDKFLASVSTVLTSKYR
T1 sequence (P68871 2-147 limits assumed): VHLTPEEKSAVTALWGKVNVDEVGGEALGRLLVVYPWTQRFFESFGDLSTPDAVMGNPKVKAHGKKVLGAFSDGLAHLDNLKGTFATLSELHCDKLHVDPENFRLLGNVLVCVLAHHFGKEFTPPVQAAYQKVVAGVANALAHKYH
Description: (§1) Some of the compounds described herein were tested for P50, the partial pressure of oxygen for half-saturation, on free hemoglobin (Hb) as well as human whole blood (WB) in different concentrations.
Human whole blood was freshly withdrawn from healthy donors in heparinized microtubes. The pH of the compound solutions was adjusted to approximately 7.0 and whole blood volumes at 1:1 ratios were incubated individually for 1-2 h at 37° C. with the above compounds. The measurement of the OEC was carried out with the Hemox Analyzer (TCS Scientific Co.) under the following conditions: pH 7.4, 135 mM NaCl, 5 mM KCl and 30 mM TES (N-[tris(hydroxymethyl)methyl]-2-aminoethanesulfonic acid) buffer at 37° C.

[2] = target: T2, free hemoglobin (Hb) (Homo sapiens, UniProt P68871+P69905); assay: Oxygen equilibrium curve (Hemox Analyzer), P50 on free hemoglobin; assay type: biochemical; conditions: blood matrix Hb, 100 mM compound; for P50 (Torr): effector/Hb ratio 20, pH 7.4, 37° C., n=3; for P50 increase (%): versus P50 control
T2 construct: the cells were hemolysed by addition of 2 volumes of cold distilled water; tissue EFS-Alsace; host or cells: red blood cell concentrate
T2 sequence (P69905 2-142 limits assumed): as the sequence (P69905 2-142 limits assumed) above
T2 sequence (P68871 2-147 limits assumed): as the sequence (P68871 2-147 limits assumed) above
Description: as §1
The hemoglobin solution was prepared from red blood cells concentrate (EFS-Alsace) by washing three times with 1 volume of saline (1500×g, 10 min), the cells were hemolysed by addition of 2 volumes of cold distilled water. After centrifugation (7000×g, 30 min) for stroma removal, 5 ml of the clear hemoglobin solution were placed on a 2.5 cm×30 cm column of Sephadex G-25 equilibrated with 0.1 M sodium chloride+10^−5 M EDTA. The protein was eluted with the same solution at a rate of about 20 ml/h [Benesch, R.; Benesch, R. E. and Yu, C. I. Reciprocal binding of oxygen and diphosphoglycerate by human hemoglobin. Proc. Natl. Acad. Sci. USA (1968) 59, 526-532].
The allosteric modulation of the effectors was measured by the change in p50, the partial pressure of oxygen for half-saturation. The pH of the compound solutions was adjusted to approximately 7.0. Oxygen equilibrium curves (OEC) were carried out with the Hemox Analyzer (TCS Scientific Co.) under the following conditions: pH 7.4, 135 mM NaCl, 5 mM KCl and 30 mM TES (N—[tris(hydroxymethyl)methyl]-2-aminoethanesulfonic acid) buffer at 37° C. The concentration of free hemoglobin was 5·10^−3 M (577 nm, ε=58.4 mM^−1 cm^−1 per tetramer) and the final concentrations of the allosteric effectors were of 1.0·10^−1 M, resulting in an effector/Hb ratio of 20.

[3] = target: hemoglobin (Homo sapiens, UniProt P68871+P69905); conditions: background statement; can displace Hb-bound BPG; cited from earlier work
Chain of hemoglobin (P69905 2-142 limits assumed): as the sequence (P69905 2-142 limits assumed) above
Chain of hemoglobin (P68871 2-147 limits assumed): as the sequence (P68871 2-147 limits assumed) above

[4] = test system: class I PI3K; assay: PI3K HTRF assay (Reaction Biology), class I PI3K; assay type: biochemical, human; conditions: Yes = inhibition
[5] = target: T3, Human PI3Kδ (p110δ/p85α) (Homo sapiens, UniProt O00329); assay: PI3K HTRF assay, PI3Kδ; assay type: biochemical
T3 construct: N-terminal GST tagged recombinant full-length human p110δ; GST (N); purchased Reaction Biology Corporation (RBC), Malvern, Pa; host or cells: Baculovirus infected Sf9 cells
T3 sequence (O00329 whole entry): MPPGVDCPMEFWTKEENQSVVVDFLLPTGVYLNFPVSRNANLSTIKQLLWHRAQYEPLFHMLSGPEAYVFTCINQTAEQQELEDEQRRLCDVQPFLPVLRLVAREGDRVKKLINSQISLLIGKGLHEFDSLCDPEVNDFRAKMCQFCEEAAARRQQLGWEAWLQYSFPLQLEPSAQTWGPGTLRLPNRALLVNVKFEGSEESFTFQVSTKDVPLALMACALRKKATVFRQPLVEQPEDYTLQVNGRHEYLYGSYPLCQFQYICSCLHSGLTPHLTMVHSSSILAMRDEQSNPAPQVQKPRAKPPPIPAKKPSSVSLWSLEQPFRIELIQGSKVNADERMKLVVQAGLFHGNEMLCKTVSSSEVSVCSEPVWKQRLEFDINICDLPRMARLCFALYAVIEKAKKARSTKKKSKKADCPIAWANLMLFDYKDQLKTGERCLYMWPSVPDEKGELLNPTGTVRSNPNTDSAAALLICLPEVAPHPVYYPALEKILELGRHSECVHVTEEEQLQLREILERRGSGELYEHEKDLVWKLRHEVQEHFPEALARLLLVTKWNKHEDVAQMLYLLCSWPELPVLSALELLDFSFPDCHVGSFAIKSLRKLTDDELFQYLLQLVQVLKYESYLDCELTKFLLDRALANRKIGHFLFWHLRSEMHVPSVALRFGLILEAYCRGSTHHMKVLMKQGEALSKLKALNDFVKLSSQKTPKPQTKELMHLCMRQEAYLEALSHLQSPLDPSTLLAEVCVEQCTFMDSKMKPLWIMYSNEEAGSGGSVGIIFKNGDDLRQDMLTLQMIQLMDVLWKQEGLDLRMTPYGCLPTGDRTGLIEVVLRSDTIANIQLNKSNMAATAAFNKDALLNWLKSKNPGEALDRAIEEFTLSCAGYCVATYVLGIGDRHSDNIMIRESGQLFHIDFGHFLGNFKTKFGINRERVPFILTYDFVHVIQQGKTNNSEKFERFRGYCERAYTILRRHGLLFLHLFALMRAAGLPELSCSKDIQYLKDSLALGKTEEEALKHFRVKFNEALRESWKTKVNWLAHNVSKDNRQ
T3 sequence (P27986 whole entry partner): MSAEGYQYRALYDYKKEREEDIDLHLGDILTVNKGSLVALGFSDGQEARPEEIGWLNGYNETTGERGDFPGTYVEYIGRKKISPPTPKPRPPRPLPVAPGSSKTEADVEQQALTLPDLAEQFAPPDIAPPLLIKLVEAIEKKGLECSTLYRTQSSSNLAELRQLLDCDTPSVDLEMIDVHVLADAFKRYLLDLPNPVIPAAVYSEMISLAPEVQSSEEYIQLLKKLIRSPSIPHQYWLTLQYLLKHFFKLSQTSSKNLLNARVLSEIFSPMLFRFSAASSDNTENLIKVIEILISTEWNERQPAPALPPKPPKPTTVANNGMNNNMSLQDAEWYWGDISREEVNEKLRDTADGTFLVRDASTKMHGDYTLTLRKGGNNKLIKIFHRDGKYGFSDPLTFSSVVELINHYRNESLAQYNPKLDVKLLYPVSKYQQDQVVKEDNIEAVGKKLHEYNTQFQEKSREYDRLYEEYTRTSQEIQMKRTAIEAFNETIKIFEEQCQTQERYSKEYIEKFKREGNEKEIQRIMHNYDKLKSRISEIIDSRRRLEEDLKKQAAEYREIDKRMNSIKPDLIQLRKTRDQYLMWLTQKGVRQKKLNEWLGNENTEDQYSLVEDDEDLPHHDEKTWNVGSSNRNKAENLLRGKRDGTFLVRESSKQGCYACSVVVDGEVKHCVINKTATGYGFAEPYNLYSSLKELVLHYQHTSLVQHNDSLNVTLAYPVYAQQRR

[6] = target: T4, Human PI3Kβ (p110β/p85α) (Homo sapiens, UniProt P42338); assay: PI3K HTRF assay, PI3Kβ; assay type: biochemical
T4 construct: N-terminal 6His-tagged recombinant full-length human p110β; 6His (N); purchased Reaction Biology Corporation (RBC), Malvern, Pa; host or cells: Baculovirus infected Sf21 cells
T4 sequence (P42338 whole entry): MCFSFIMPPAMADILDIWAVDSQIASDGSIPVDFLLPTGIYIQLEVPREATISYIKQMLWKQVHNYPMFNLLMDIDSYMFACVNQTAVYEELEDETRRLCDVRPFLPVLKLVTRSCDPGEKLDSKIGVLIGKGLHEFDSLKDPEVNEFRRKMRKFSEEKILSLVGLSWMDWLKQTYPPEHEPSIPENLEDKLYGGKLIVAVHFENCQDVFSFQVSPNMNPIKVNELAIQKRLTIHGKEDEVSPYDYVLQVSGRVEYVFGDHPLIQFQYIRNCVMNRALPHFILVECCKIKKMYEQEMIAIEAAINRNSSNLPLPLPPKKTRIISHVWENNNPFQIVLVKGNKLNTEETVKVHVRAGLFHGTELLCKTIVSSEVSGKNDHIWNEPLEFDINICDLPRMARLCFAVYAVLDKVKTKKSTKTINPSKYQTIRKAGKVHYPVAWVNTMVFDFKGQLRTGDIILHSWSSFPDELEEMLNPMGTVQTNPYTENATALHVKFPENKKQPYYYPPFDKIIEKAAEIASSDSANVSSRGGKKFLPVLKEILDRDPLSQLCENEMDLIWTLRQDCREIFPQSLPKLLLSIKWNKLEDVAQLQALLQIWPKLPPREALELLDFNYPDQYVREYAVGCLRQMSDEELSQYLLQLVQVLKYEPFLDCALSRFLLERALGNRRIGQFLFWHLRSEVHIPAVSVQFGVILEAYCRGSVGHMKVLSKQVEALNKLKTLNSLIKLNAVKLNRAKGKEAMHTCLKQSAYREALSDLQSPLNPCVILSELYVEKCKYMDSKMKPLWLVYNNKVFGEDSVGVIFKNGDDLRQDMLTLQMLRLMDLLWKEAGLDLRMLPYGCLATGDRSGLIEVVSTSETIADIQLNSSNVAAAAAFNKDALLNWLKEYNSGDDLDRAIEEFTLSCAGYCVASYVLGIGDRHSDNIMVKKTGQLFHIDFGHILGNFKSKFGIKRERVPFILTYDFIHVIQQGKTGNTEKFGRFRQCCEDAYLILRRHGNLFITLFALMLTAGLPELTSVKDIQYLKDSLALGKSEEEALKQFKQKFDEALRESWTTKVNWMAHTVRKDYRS
T4 sequence (P27986 whole entry partner): as the sequence (P27986 whole entry partner) above

O=P(O)(O)OCC(OP(=O)(O)O)C(COP(=O)(O)O)OP(=O)(O)O (stereo not drawn) [SP1-134, meso-erythritol tetraphosphate]
P50 (Torr) ([1]; 120 mM compound): 30.17 ± 0.94 Torr
P50 increase (%) ([1]; 120 mM compound): 17%
P50 (Torr) [2]: 29.40 ± 1.20 Torr
P50 increase (%) [2]: 151%

Dibutyl-L-tartrate bisphosphate [SP1-219]
P50 (Torr) ([1]; 60 mM compound): 30.91 ± 1.76 Torr
P50 increase (%) ([1]; 60 mM compound): 11%
P50 (Torr) ([1]; 120 mM compound): 30.77 ± 1.44 Torr
P50 increase (%) ([1]; 120 mM compound): 11%

L-tartrate bisphosphate [SP1-90]
P50 (Torr) [2]: 24.76 ± 1.31 Torr
P50 increase (%) [2]: 127%

O=P(O)(O)O[C@H]1[C@H](OP(=O)(O)O)[C@@H](OP(=O)(O)O)[C@H](OP(=O)(O)O)[C@@H](OP(=O)(O)O)[C@H]1OP(=O)(O)O [Phytic acid, myo-inositol hexakisphosphate]
potency relative to BPG (fold) [3]: 1000 fold

CCOC(=O)[C@@H]1OP(=O)([O-])OP(=O)([O-])O[C@H]1C(=O)OCC.[Na+].[Na+] [OXY3012, L-DET]
PI3 Kinase Inhibition [4]: Yes

O=P1(O)OC2C3OP(=O)(O)OP(=O)(O)OC3C3OP(=O)(O)OP(=O)(O)OC3C2OP(=O)(O)O1 (stereo not shown) [OXY111A, Myo-ITPP]
PI3 Kinase Inhibition [4]: Yes
activity against PI3Kδ [5]: showed activity
activity against PI3Kβ [6]: showed activity

meso-Me Galactarate [OXY3006]
PI3 Kinase Inhibition [4]: Yes
